Test system: bacteria
Assay: Non-antimicrobial dose and plasma antimicrobial threshold of antibacterial tetracyclines
Description: For example, tetracycline compounds that have significant antibacterial activity may be administered in an amount which is 10-80% of the antibacterial amount. More preferably, the antibacterial tetracycline compound is administered in an amount which is 40-70% of the antibacterial amount.
Examples of antibacterial tetracyclines administered in a non-antibacterial amount are depicted in Table 1, as follows: […]

Row | Structure (SMILES) | Plasma Antimicrobial Threshold Level [µg/mL] | Maximum Non-Antimicrobial Dose (twice daily) [mg b.i.d] | Maximum Non-Antimicrobial Dose (once daily) [mg q.d.]
1 | C[C@H]1c2cccc(O)c2C(=O)C2=C(O)[C@]3(O)C(=O)C(C(N)=O)=C(O)[C@@H](N(C)C)[C@@H]3[C@@H](O)[C@@H]21 [Doxycycline] | 1.0 | 20 | 
2 | CN(C)c1ccc(O)c2c1C[C@H]1C[C@H]3[C@H](N(C)C)C(O)=C(C(N)=O)C(=O)[C@@]3(O)C(O)=C1C2=O [Minocycline] | 0.8 |  | 38
3 | CN(C)[C@@H]1C(O)=C(C(N)=O)C(=O)[C@@]2(O)C(O)=C3C(=O)c4c(O)cccc4[C@@](C)(O)[C@H]3C[C@@H]12 [Tetracycline] | 0.5 |  | 60

From US20080233151A1, “Use of non-antibacterial tetracycline analogs and formulations thereof for the treatment of bacterial exotoxins” (priority 2002, published 2008)
